Two compounds from patent publication US20100197688A1, “EPHA4 RTK INHIBITORS FOR TREATMENT OF NEUROLOGICAL AND NEURODEGENERATIVE DISORDERS AND CANCER” (priority 2008, published 2010) can be followed below.

The subject of one data set is CHO-K1 cells. The data set is described as follows: Cell viability (Cell Glo) in EphA4 cell assay. In kind it is cell-based, Chinese Hamster. As to the method:
Transfection and Luciferase Assay: CHO-K1 cells were plated in T-175 cell culture bottle in DMEM medium supplemented with 10% fetal bovine serum, 1 mM sodium pyruvate, 2 mM L-glutamine and 1.5 g/L sodium bicarbonate. When cell reached 70-80% confluence, transfections were performed in T-175 culture flasks, using Lipofectamine 2000™ transfection reagent (Invitrogen) according to the manufacturer's directions. For the luciferase assay CHO-K1 cells were co-transfected the next day with […] of pGAS-Luc, 70 mg of EphA4, and 5 mg of empty vector pRL-CMV, which encoded the Renilla luciferase, and was included in the transfection mix for normalization. […] Cells were lysed the next day using the Reporter Lysis Buffer (Promega), and the luciferase activity was measured using the Dual Luciferase Assay (Promega) following the manufacturer's directions. The Firefly and Renilla luminescences are read consecutively on a Top-Count (Perkin-Elmer). Results are expressed as a ratio of the two luminsescence: Firefly Luciferase/Renilla Luciferase. Cell viability was assessed on parallel plates using the Cell Glo Assay (Promega) following the manufacturer's directions. Results are expressed as percent of cell death in comparison with vehicle-treated wells.

In data set [1] the target is T1, human form of EphA4 receptor (Homo sapiens, UniProt P54764).
T1 construct: expressed in transfected cells; host or cells: CHO-K1, transiently transfected with EphA4 in pCMV6-XL5
T1 sequence (P54764 20-986): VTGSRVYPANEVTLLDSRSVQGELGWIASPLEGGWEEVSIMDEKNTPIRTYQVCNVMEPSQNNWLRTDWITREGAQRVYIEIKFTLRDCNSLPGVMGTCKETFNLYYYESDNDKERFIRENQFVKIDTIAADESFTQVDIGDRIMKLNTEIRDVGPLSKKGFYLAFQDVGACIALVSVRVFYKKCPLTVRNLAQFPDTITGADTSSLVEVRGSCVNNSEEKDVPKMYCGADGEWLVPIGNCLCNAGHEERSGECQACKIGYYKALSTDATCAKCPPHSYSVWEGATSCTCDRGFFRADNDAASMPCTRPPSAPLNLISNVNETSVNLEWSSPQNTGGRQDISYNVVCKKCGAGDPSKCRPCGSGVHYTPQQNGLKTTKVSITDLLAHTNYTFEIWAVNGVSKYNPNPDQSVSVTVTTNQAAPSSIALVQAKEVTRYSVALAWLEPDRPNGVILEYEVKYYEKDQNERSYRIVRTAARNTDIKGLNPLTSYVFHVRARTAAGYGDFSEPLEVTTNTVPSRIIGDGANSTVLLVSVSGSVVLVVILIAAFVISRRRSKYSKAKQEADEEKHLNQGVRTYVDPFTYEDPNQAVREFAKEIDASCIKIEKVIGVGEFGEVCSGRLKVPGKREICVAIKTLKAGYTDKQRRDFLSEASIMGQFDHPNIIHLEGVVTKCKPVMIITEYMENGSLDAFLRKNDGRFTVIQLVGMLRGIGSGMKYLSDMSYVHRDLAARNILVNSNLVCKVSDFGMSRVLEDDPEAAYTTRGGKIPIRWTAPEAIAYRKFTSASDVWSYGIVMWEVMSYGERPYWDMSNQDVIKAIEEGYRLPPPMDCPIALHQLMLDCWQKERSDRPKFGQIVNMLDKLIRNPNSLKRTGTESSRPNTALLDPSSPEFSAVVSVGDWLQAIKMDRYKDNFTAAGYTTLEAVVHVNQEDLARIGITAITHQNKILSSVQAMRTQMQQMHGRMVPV
Kind of data set: EphA4 cell-based assay (pGAS-luciferase in EphA4-transfected CHO-K1 cells). The note with it: for IC50: inflexion point, read-out: EphA4 Cell Assay IP; for EphA4 Cell Assay maximum percent inhibition: value in parentheses. An excerpt:
A cell-based assay was used to measure the potency of the compounds on the human form of EphA4 receptor over-expressed in Chinese Hamster Ovary cell line, CHO-K1 cells (Merck Collection). The cell assay was based on a novel signaling pathway of EphA4, which involves activation of the tyrosine kinase Jak2 and the transcriptional activator Stat3 (39).
Reagents: The expression constructs of EphA4 were subcloned into the expression vector pCMV6-XL5 (Origene, Md., USA) (clone from Merck Kinase Library). The luciferase construct that was linked to the Stat1-responsive enhancer (pGAS-Luc) was bought from Stratagene (USA). The renilla construct that linked to an empty vector CMV was bought from Promega (USA).
Transfection and Luciferase Assay: CHO-K1 cells were plated in T-175 cell culture bottle in DMEM medium supplemented with 10% fetal bovine serum, 1 mM sodium pyruvate, 2 mM L-glutamine and 1.5 g/L sodium bicarbonate. When cell reached 70-80% confluence, transfections were performed in T-175 culture flasks, using Lipofectamine 2000™ transfection reagent (Invitrogen) according to the manufacturer's directions. For the luciferase assay CHO-K1 cells were co-transfected the next day with […] of pGAS-Luc, 70 mg of EphA4, and 5 mg of empty vector pRL-CMV, which encoded the Renilla luciferase, and was included in the transfection mix for normalization. Six hours after transfection the cells were trypsinized and plated at 4.105 cells/ml into 96 well Black/Clear Poly-D-Lysine coated plates (Biocoat) that had been pre-spotted with compounds. Cells were lysed the next day using the Reporter Lysis Buffer (Promega), and the luciferase activity was measured using the Dual Luciferase Assay (Promega) following the manufacturer's directions. The Firefly and Renilla luminescences are read consecutively on a Top-Count (Perkin-Elmer). Results are expressed as a ratio of the two luminsescence: Firefly Luciferase/Renilla Luciferase. Cell viability was assessed on parallel plates using the Cell Glo Assay (Promega) following the manufacturer's directions. Results are expressed as percent of cell death in comparison with vehicle-treated wells.
(§1) Compounds were titrated in duplicate at 10 points concentration starting at 100 μM with a 1.5 fold increment. Concentration-response curves were represented and the concentrations at the inflexion point (IP) were calculated. The maximum effect was given by the maximum percent inhibition calculated from the results of the control wells (containing only DMSO).

The test system of the next data set is C2C12 cells. Kind of data set: Proliferation assay (cell confluence), C2C12 cells. In kind it is cell-based, mouse. The note with it: at 5 μM. As to the method:
C2C12 were plated at 15,000 cells per well and then differentiated into myotubes with DMEM supplemented with 2% horse serum for 3 days in 24 well ImageLock™ plate (Essen Instruments, Mich., USA). Primary Rat cortical astrocytes were plated at 3.105 cells/ml onto 24 well ImageLock™ plate.
Cells were placed into the IncuCyte™ at 37° C. and 95% CO2/5% O2, for two to three days. During this time, the cells within each well were repeatedly imaged at fixed time intervals (every three hours). The IncuCyte™ system automatically monitored the proliferation using the percentage of confluence. Percent of confluence can be graphed over time to evaluate the characteristics of proliferation in the presence of pharmacological agents.
[…] The percentage of reduction of cell confluence was calculated from the AUCs in comparison with the AUCs of the control wells (1% DMSO).

The next data set deals with T2, P60c-src (Homo sapiens, UniProt P12931).
T2 construct: purchased Upstate biotechnology, USA
T2 sequence (P12931 whole entry): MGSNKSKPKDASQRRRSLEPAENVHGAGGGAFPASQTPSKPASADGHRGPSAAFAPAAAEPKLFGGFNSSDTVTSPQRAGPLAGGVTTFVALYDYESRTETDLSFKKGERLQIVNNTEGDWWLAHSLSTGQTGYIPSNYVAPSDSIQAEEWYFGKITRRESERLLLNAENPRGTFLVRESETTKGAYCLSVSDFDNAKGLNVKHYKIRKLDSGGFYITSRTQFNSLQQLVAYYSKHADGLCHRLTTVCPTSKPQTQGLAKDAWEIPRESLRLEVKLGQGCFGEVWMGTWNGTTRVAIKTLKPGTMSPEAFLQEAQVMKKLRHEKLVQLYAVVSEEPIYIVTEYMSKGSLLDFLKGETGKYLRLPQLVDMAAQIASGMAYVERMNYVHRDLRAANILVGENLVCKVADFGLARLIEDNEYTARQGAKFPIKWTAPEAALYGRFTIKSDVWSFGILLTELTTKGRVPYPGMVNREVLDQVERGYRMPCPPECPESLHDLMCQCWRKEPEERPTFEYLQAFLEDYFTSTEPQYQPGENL
Kind of data set: Src kinase counterscreen enzymatic assay (TR-FRET). In kind it is biochemical. The note with it: 0.5 μM ATP. As to the method:
(§2) Counterscreen assays were developed for the tyrosine kinases src kinase and jak2 kinase, with a format essentially identical to the EphA4 kinase TR-FRET format. Jak2 (50 ng) (Cell Signaling, USA) was incubated with 0.5 μM of biotinylated FLT3 peptide (Cell Signaling, USA) in presence of 5 μM of ATP (Sigma). P60c-src (10 U/well) (Upstate biotechnology, USA) was incubated with biotinylated Poly(Glu Tyr) peptide (100 nM) in presence of 0.5 μM of ATP. The enzymatic reaction was stopped after 60 min by adding 15 mM EDTA. The detection reaction and energy transfer signal measurements were similar to those previously described. Results were expressed as ratios of the absorbencies 665/615.
(§3) Compounds were titrated in duplicate at 11 points concentration starting at 100 μM with a 3 fold increment. Compounds were diluted in DMSO. […] Percentage inhibition for each compound was then calculated based on the value of the 100% inhibition. Concentration-response curves were represented and the concentrations for 50% inhibition (IC50) were calculated.
For orientation: A counterscreen serves to expose hits that act by an unwanted route or on another target.

The next data set concerns the target T3, Jak2 (Homo sapiens, UniProt O60674).
T3 construct: purchased Cell Signaling, USA
Kind of data set: Jak2 kinase counterscreen enzymatic assay (TR-FRET). The data set is classed as biochemical. The note with it: 5 μM ATP. As to the method: as §2, §3

In data set [2] the test system is Jak2/Stat3 activation with Interferon Gamma in MCF-7 cells. The data set is described as follows: Cell-based counterscreen assay (IFN-γ activated Jak2/Stat3, pGAS-luciferase). The note with it: for IC50: Homo sapiens, MCF7, inflexion point, read-out: Cell Counter Screen Assay IP.
From the text: EphA4 cell-based assay was based on the signaling pathway of EphA4, which involves activation of the tyrosine kinase Jak2 and the transcriptional activator Stat3. However, pharmacological agents could also interfere downstream of EphA4 signaling and particularly on Jak2 activity. To counterscreen this potential effect unrelated to EphA4 activity, a new assay was designed based on direct activation of the tyrosine kinase Jak2 and the transcriptional activator Stat3 with Interferon Gamma (IFN-γ).
MCF-7 cells were maintained in MEM growth media, supplemented with 10% fetal bovine serum, 2 mM L-glutamine, 1.5 g/L sodium bicarbonate, 0.1 mM non-essential amino acids, 1 mM sodium pyruvate, and 0.01 mg/ml bovine insulin. For the luciferase assay MCF-7 cells were co-transfected the next day with […] of pGAS-Luc and […] of empty vector pRL-CMV, which encoded the Renilla luciferase, and was included in the transfection mix for normalization. Six hours after transfection the cells were trypsinized and plated at 4.105 cells/ml into 96 well Black/Clear Poly-D-Lysine coated plates (Biocoat) that had been pre-spotted with compounds. […] Cells were lysed the next day using the Reporter Lysis Buffer (Promega), and the luciferase activity was measured using the Dual Luciferase Assay (Promega) following the manufacturer's directions. The Firefly and Renilla luminescences are read consecutively on a Top-Count (Perkin-Elmer).
Results are expressed as a ratio of the two luminsescence: Firefly Luciferase/Renilla Luciferase. Cell viability was assessed on parallel plates using the Cell Glo Assay (Promega) following the manufacturer's directions. Results are expressed as percent of cell death in comparison with vehicle-treated wells.
as §1

Molecules are shown by their SMILES.

T3 sequence (O60674 whole entry, species assumed): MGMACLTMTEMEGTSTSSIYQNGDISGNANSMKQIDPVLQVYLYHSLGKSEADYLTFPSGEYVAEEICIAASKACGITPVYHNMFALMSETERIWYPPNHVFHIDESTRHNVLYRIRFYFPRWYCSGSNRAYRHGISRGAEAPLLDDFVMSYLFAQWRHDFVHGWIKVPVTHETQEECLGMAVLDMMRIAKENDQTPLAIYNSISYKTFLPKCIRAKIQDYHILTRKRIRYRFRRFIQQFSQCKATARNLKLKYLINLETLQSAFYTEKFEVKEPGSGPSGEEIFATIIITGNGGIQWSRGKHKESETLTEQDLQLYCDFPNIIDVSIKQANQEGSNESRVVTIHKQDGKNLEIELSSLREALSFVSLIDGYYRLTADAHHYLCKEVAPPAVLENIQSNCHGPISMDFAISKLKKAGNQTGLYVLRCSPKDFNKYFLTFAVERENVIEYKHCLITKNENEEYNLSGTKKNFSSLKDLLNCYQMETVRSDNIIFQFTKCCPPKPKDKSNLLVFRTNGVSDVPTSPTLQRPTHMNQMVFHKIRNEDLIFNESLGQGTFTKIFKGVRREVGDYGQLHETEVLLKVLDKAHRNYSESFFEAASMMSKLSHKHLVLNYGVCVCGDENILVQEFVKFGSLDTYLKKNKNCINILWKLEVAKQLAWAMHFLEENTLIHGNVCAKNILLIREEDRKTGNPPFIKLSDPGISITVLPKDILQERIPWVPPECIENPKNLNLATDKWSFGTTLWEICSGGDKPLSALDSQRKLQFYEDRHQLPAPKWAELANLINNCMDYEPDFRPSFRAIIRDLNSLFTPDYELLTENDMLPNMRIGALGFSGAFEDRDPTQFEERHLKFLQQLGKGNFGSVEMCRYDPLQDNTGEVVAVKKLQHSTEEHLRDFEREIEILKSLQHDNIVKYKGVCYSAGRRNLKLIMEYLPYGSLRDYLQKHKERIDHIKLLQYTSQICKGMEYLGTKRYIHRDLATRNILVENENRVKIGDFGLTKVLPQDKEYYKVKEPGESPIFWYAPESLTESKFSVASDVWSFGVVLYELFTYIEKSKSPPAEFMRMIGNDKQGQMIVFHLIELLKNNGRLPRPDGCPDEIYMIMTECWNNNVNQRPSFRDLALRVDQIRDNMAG

On to `Cc1ccc(NC(=O)c2cccc(C(F)(F)F)c2)cc1-c1ccc(-n2cccn2)cc1` [Example 120], for which the “Max Toxicity Cell Assay % of cell death” value with CHO-K1 cells (at 25 μM) was found to be 8% at 25 μM. The IC50 in data set [1] is 5.6 µM; against P60c-src it was more than 100 µM; against Jak2 it was more than 100 µM; in data set [2] it was more than 100 µM. Moreover, the “EphA4 Cell Assay maximum percent inhibition” value in data set [1] is listed as 50%. Further, the “% Reduction Confluence C2C12 Cells” value in the data set with C2C12 cells stood at 33.3% at 5 μM.

On to `Cc1ccc(NC(=O)c2cccc(C(F)(F)F)c2)cc1-c1ccc(O)c(NC=O)c1` [Example 133], for which the “Max Toxicity Cell Assay % of cell death” value in the data set with CHO-K1 cells (at 50 μM) is reported as 15% at 50 μM. Further, the IC50 is 8.3 µM in data set [1], more than 100 µM on P60c-src, more than 100 µM against Jak2 and 1.7 µM in data set [2]. Also, in data set [1], the “EphA4 Cell Assay maximum percent inhibition” value came out at 42%. The “% Reduction Confluence C2C12 Cells” value in the data set with C2C12 cells is reported as 17.5% at 5 μM. The “Cell Counter Screen Assay max inhibition in %” value in data set [2] (value in parentheses) was 99%.
